Measurements published in patent publication US20220402948A1, “EGFR INHIBITOR, COMPOSITION AND PREPARATION METHOD THEREFOR” (BETTA PHARMACEUTICALS CO., LTD., priority 2019, published 2022).

How the values were obtained:
EGFRΔ19del/T790M/C797S = EGFRΔ19del/T790M/C797S (Homo sapiens, UniProt P00533, T790M/C797S, form not given); experiment: EGFR Δ19del/T790M/C797S kinase test (mobility variation analysis, Caliper EZ Reader); format: biochemical; details: kinase enzymatic activity, Table 1
In short: (§1)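 Read-out is substrate-to-product conversion by mobility shift, stopped after incubation at room temperature with ATP and substrate, following a 10-minute room-temperature compound–enzyme pre-incubation. IC50 obtained by four-parameter variable-slope fitting of inhibition normalized between enzyme-free and uninhibited controls.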

EGFR WT = EGFR WT (Homo sapiens, UniProt P00533); experiment: EGFR WT kinase test (mobility variation analysis, Caliper EZ Reader); format: biochemical; details: kinase enzymatic activity, Table 1
In short: as §1

IGF1R = IGF1R (Homo sapiens, UniProt P08069); experiment: IGF1R kinase test (mobility variation analysis, Caliper EZ Reader); format: biochemical; details: kinase enzymatic activity, Table 1; read-out: EGFR IGF1R IC50
In short: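 Mobility-shift readout of substrate conversion, normalised to positive (no compound) and negative (no kinase) controls, gives % inhibition and IC50 by four-parameter fit. Compounds, 3-fold dilutions over 10 concentrations starting at 3000 nM, preincubated 10 min with kinase before ATP/substrate start; room temperature.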

[1] = target: Ba/F3 cells with EGFR Δ19del/T790M/C797S mutation gene stably overexpressed (Homo sapiens, UniProt P00533, T790M/C797S, cells depend on it, form not given); experiment: Ba/F3-Δ19del/T790M/C797S cell proliferation assay (CellTiter Glo, 72 hours); format: cell-based; details: Table 2, read-out: EGFR Δ19del/T790M/C797S IC50
In short: (§2)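 Ba/F3 cells stably overexpressing wild-type EGFR or EGFR Δ19del/T790M/C797S were seeded at 2000 cells/well and incubated 72 h with compound. Viability was read by CellTiter-Glo luminescence, and IC50 came from a four-parameter logistic fit of signal against log concentration.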

[2] = target: Ba/F3-EGFR wild-type cell line (Homo sapiens, UniProt P00533); experiment: Ba/F3-EGFR wild-type cell proliferation assay (CellTiter Glo, 72 hours); format: cell-based; details: Table 2, read-out: EGFR WT IC50
In short: as §2

A431 = A431 cell proliferation assay (CellTiter Glo, 72 hours); format: cell-based; details: Homo sapiens, A-431, 72 h, cell proliferation, A431, 72 hours, Table 2; read-out: A431 IC50
In short: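 Luminescence (CellTiter-Glo) after 72 h treatment gives viability, fitted by nonlinear regression to yield IC50. Cells seeded at 2000 per well; nine 3-fold concentrations from 1000 nM, DMSO final 0.1% (0.5% for certain compounds).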

Sequence of Ba/F3-EGFR wild-type cell line (P00533 whole entry, change not shown): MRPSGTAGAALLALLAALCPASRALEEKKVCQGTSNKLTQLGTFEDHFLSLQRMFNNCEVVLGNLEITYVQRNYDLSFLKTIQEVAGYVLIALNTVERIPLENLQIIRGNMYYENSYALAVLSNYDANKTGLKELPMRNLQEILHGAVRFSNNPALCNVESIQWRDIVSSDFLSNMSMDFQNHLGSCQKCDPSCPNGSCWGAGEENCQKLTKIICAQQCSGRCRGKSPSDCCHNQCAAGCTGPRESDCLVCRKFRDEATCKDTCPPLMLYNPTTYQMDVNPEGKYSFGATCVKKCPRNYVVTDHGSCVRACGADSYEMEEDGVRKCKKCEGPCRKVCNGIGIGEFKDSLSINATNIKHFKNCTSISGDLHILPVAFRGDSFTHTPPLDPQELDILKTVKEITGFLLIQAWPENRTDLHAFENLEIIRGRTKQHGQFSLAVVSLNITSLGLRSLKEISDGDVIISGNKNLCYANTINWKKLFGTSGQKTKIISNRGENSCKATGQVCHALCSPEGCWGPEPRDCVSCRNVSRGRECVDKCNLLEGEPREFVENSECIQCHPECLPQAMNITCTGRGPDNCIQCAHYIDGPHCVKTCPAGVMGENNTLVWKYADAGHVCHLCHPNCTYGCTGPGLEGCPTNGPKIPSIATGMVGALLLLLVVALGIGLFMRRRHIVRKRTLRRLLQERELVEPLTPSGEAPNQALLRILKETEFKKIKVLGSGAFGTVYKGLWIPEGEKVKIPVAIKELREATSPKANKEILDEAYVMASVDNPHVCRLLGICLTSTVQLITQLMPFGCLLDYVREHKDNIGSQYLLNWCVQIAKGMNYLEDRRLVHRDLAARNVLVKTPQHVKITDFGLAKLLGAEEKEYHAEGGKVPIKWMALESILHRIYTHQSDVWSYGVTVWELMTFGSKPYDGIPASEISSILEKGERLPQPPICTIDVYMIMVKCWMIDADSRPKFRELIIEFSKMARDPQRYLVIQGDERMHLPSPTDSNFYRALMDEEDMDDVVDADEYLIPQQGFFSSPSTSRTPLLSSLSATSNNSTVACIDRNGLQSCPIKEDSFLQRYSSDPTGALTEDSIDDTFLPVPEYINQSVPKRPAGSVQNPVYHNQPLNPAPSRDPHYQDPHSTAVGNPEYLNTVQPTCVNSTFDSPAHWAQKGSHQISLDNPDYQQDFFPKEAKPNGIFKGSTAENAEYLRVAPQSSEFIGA
Sequence of Ba/F3 cells with EGFR Δ19del/T790M/C797S mutation gene stably overexpressed (P00533 with tags, fused parts or gaps DEL746-750/T790M/C797S, form open): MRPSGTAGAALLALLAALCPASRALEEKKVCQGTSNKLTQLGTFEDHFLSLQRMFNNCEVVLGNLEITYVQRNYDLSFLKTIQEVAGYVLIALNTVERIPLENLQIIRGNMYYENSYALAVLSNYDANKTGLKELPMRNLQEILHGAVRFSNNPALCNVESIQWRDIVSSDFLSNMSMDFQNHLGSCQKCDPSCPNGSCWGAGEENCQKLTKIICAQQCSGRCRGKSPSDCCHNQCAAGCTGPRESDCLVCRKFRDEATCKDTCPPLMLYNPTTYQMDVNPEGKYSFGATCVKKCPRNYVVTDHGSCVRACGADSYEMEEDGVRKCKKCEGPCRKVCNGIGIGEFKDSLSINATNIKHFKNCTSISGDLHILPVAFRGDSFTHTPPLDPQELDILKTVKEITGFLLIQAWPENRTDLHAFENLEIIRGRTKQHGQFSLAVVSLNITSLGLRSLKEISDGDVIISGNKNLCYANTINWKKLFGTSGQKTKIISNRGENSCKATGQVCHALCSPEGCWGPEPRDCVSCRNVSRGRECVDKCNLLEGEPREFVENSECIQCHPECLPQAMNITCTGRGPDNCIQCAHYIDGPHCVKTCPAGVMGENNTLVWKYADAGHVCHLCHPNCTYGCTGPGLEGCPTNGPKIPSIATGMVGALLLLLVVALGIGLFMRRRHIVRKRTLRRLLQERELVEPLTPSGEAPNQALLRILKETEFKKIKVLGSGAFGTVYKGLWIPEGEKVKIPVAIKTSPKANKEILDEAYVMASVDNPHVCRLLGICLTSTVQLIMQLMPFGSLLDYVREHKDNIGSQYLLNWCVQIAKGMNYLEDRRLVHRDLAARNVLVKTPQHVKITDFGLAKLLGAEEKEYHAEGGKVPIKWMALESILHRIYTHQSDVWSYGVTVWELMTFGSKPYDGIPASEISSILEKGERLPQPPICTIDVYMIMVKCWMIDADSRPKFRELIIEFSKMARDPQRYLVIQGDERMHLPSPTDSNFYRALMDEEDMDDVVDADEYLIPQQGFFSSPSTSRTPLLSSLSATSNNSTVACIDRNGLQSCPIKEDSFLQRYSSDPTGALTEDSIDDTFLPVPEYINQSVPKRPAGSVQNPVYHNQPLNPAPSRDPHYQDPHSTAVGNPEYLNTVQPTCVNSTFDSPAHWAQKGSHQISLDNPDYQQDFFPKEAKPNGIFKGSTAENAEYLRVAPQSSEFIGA
Sequence of EGFRΔ19del/T790M/C797S (P00533 with tags, fused parts or gaps DEL746-750/T790M/C797S, form open): as above
Sequence of IGF1R (P08069 31-1367, species assumed): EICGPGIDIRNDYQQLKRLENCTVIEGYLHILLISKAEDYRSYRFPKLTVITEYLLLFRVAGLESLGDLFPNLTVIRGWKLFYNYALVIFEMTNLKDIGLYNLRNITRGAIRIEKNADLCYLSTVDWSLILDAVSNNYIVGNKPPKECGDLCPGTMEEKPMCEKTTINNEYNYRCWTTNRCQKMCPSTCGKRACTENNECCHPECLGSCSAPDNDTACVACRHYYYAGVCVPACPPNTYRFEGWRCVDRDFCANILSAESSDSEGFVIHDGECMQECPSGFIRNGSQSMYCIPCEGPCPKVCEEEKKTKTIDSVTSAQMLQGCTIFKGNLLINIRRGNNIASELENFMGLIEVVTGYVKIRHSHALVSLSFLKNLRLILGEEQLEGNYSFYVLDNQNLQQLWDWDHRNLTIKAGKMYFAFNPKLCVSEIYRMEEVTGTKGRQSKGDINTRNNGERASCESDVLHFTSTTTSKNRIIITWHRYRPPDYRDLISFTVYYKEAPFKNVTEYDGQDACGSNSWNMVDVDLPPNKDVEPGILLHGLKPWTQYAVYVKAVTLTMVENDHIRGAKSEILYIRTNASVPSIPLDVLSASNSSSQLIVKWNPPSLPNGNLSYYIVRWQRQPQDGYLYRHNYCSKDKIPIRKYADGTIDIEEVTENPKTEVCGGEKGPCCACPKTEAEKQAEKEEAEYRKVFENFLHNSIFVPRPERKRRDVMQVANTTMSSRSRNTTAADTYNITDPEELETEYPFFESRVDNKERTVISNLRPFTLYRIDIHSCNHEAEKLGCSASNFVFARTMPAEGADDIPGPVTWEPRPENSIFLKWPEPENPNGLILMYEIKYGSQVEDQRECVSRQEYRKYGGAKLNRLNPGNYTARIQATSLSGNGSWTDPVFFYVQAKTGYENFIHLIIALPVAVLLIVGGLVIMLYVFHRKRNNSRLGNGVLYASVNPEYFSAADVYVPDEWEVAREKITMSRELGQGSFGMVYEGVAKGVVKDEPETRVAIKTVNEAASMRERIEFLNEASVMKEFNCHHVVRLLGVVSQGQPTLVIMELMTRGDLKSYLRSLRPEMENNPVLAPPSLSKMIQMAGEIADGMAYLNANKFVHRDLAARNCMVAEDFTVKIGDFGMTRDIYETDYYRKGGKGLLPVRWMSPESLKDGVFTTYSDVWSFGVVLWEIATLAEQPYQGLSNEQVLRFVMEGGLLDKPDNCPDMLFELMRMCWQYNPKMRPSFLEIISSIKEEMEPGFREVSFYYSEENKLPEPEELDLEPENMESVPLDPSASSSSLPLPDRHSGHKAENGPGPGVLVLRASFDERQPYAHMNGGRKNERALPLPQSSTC

| Structure (SMILES) | IC50 (EGFRΔ19del/T790M/C797S) [nM] | IC50 (EGFR WT) [nM] | IC50 (IGF1R) [nM] | GI50 [1] [nM] | GI50 [2] [nM] | IC50 (A431) [nM] |
| --- | --- | --- | --- | --- | --- | --- |
| C#Cc1ccc(-c2ccc(Nc3nc(Nc4cc(C)c(N5CCC(N6CCN(C)CC6)CC5)cc4OC)ncc3Br)c(P(C)(C)=O)c2)s1 [Compound K-016, (2-((5-Bromo-2-((2-methoxy-5-methyl-4-(4-(4-methylpiperazin-1-yl)piperidin-1-yl)phenyl)amino)pyrimidin-4-yl)amino)-5-(5-ethynylthiophen-2-yl)phenyl)dimethylphosphine oxide] | 0.5 | 13.1 | 94 | 15.3 | 145 | 497 |
| COc1cc(Nc2ncc(Br)c(Nc3ccc(-c4cnccn4)cc3P(C)(C)=O)n2)c(C)cc1N1CCC(N2CCN(C)CC2)CC1 [Compound K-017, (2-((5-Bromo-2-((5-methoxy-2-methyl-4-(4-(4-methylpiperazin-1-yl)piperidin-1-yl)phenyl)amino)pyrimidin-4-yl)amino)-5-(pyrazin-2-yl)phenyl)dimethylphosphine oxide] | 0.5 | 14.4 | 39.1 | 12 | 445 | 812 |

The next lines start with the values.

| IC50 (EGFRΔ19del/T790M/C797S) [nM] | IC50 (EGFR WT) [nM] | IC50 (IGF1R) [nM] | GI50 [1] [nM] | GI50 [2] [nM] | IC50 (A431) [nM] | Structure (SMILES) |
| --- | --- | --- | --- | --- | --- | --- |
| 0.3 | 31 | 170 | 14.6 | 285 | > 10000 | COc1cnn(-c2ccc(Nc3nc(Nc4cc(C)c(N5CCN(C6CCN(C)CC6)CC5)cc4OC)ncc3Br)c(P(C)(C)=O)c2)c1 [Compound K-088] |
| 0.3 | 169 | 259 | 9.5 | 400 | > 10000 | COc1cnn(-c2ccc(Nc3nc(Nc4cc(C)c(N5CCN(C6CCCC6)CC5)cc4OC)ncc3Br)c(P(C)(C)=O)c2)c1 [Compound K-089, (2-((5-Bromo-2-((4-(4-cyclopentylpiperazin-1-yl)-2-methoxy-5-methylphenyl)amino)pyrimidin-4-yl)amino)-5-(4-methoxy-1H-pyrazol-1-yl)phenyl)dimethylphosphine oxide] |
| 0.5 | 149 | 997 | 50.9 | 432 | 7650 | CCc1cc(Nc2ncc(Br)c(Nc3ccc(-c4nn(C)c5ncccc45)cc3P(C)(C)=O)n2)c(OC)cc1N1CCC(N(C)C)CC1 [Compound K-079, (2-((5-Bromo-2-((4-(4-(dimethylamino)piperidin-1-yl)-5-ethyl-2-methoxyphenyl)amino)pyrimidine-4-yl)amino)-5-(1-methyl-1H-pyrazolo[3,4-b]pyridin-3-yl)phenyl)dimethylphosphine oxide] |
